The values that follow come from patent US10766884B2 (Pfizer Inc., priority 2018, dated 2020).

One assay has as its target CDK4/Cyclin D1 (Homo sapiens (Human), UniProt P11802). In words: CDK4/Cyclin D1 mobility shift assay. The assay is classed as biochemical. The note with it: activated CDK4/Cyclin D1, 3.5 mM ATP, Morrison fit; read-out: CDK4D1 Ki. As to the method: The purpose CDK4/Cyclin D1 assay is to evaluate the inhibition (% inhibition, Kiapp and Ki values) in the presence of small molecule inhibitors by using a fluorescence based microfluidic mobility shift assay. […] The mobility shift assay electrophoretically separates the fluorescently labeled peptides (substrate and phosphorylated product) following the kinase reaction. Both substrate and product are measured and the ratio of these values is used to generate % Conversion of substrate to product by the LabChip EZ Reader.
The reaction was stopped after 195 minutes by the addition of 50 μL of 30 mM EDTA. Ki determinations were made from a plot of the fractional velocity as a function of inhibitor concentration fit to the Morrison equation with the enzyme concentration as a variable.
(§1) For CDK4 and CDK6 mobility shift assays, see also Morrison, J. F. (1969) Kinetics of the reversible inhibition of enzyme-catalysed reactions by tight-binding inhibitors, Biochimica et biophysica acta 185, 269-286; and Murphy, D. J. (2004) Determination of accurate KI values for tight-binding enzyme inhibitors: an in silico study of experimental error and assay design, Analytical biochemistry 327, 61-67.

The target of the next assay is CDK6/Cyclin D3 (Homo sapiens (Human), UniProt Q00534). In words: CDK6/Cyclin D3 mobility shift assay. Particulars: activated CDK6/Cyclin D3, 3.5 mM ATP, Morrison fit; read-out: CDK6_D3 Ki. The format is biochemical. As to the method:
The purpose of the CDK6/Cyclin D3 assay is to evaluate the inhibition (% inhibition, Kiapp and Ki values) in the presence of small molecule inhibitors by using a fluorescence based microfluidic mobility shift assay. […] The mobility shift assay electrophoretically separates the fluorescently labeled peptides (substrate and phosphorylated product) following the kinase reaction. Both substrate and product are measured and the ratio of these values is used to generate % conversion of substrate to product by the LabChip EZ Reader.
The reaction was stopped after 95 minutes by the addition of 50 μL of 30 mM EDTA. Ki determinations were made from a plot of the fractional velocity as a function of inhibitor concentration fit to the Morrison equation with the enzyme concentration as a variable.
as §1

As a reminder, the Ki is a dissociation constant, usually derived from enzyme kinetics or from competition with a known ligand.

Chain of CDK6/Cyclin D3 (Q00534 whole entry): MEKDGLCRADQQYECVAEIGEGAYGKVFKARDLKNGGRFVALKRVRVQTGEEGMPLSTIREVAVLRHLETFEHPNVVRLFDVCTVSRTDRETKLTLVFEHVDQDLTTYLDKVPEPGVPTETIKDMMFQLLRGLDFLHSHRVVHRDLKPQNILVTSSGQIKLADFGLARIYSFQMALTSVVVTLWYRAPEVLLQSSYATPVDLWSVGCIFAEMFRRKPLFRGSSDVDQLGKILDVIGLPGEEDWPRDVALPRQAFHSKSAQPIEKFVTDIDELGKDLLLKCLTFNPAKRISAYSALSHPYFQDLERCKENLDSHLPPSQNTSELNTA
Chain of CDK6/Cyclin D3 (P30281 whole entry partner): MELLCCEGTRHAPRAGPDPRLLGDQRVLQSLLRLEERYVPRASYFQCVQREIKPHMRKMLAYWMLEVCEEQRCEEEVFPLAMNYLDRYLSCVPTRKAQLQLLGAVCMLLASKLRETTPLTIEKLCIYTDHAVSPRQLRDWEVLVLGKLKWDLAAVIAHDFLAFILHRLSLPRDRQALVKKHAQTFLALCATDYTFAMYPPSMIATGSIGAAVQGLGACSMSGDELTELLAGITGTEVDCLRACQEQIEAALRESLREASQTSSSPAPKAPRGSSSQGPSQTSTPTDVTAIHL
Chain of CDK4/Cyclin D1 (P11802 whole entry): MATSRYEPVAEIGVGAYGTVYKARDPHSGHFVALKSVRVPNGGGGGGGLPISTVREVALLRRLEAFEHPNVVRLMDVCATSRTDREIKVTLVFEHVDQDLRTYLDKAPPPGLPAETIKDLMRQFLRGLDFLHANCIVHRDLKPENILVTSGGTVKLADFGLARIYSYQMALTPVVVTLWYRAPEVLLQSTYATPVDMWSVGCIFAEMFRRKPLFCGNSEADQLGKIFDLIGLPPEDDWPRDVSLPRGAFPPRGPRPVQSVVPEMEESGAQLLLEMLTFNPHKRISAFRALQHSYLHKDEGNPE
Chain of CDK4/Cyclin D1 (P24385 whole entry partner): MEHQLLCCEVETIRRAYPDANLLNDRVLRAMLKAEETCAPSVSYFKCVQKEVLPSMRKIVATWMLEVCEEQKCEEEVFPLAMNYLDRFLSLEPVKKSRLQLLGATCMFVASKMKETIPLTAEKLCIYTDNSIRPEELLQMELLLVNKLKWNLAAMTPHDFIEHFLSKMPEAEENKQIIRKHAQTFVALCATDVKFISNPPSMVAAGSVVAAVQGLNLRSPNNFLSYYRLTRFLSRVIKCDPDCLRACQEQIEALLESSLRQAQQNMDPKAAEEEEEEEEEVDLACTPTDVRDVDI

As to `CC(C)n1c(C2CCO2)nc2c(F)cc(-c3nc(N[C@@H]4CCN(S(C)(=O)=O)C[C@H]4O)ncc3Cl)cc21` (single isomer, unassigned) [Example A32], the inhibitory constant (Ki) turned out to be 0.9 nM at CDK4/Cyclin D1 and 7.1 nM on CDK6/Cyclin D3.
`CC1CNCc2nc3c(F)cc(-c4nc(N[C@@H]5CCOC[C@H]5O)ncc4Cl)cc3n21` (single isomer, unassigned) [Example A56, 1,5-anhydro-3-{[5-chloro-4-(9-fluoro-4-methyl-1,2,3,4-tetrahydropyrazino[1,2-a]benzimidazol-7-yl)pyrimidin-2-yl]amino}-2,3-dideoxy-D-threo-pentitol]: the Ki on CDK4/Cyclin D1 was 1.3 nM; on CDK6/Cyclin D3 it was 9.6 nM.
Regarding `C[C@@H](N)c1nc2c(F)cc(-c3nc(N[C@@H]4CCOC[C@H]4O)ncc3Cl)cc2n1C(C)(C)C` [Example A42, 3-[(4-{2-[(1R)-1-aminoethyl]-1-tert-butyl-4-fluoro-1H-benzimidazol-6-yl}-5-chloropyrimidin-2-yl)amino]-1,5-anhydro-2,3-dideoxy-D-threo-pentitol], the figures for the Ki on CDK4/Cyclin D1 and on CDK6/Cyclin D3 were 6 nM and 54.7 nM, respectively.
In the same order, the values of `CC(C)n1c([C@H](C)O)nc2c(F)cc(-c3cc(N[C@@H]4CCN(S(C)(=O)=O)C[C@H]4O)ncc3Cl)cc21` [Example D01, (3R,4R)-4-[(5-chloro-4-{4-fluoro-2-[(1S)-1-hydroxyethyl]-1-(propan-2-yl)-1H-benzimidazol-6-yl}pyridin-2-yl)amino]-1-(methanesulfonyl)piperidin-3-ol] are 0.4 nM and 1.7 nM.
For the compound `Cc1nc2c(F)cc(-c3nc(N[C@@H]4CCN(S(C)(=O)=O)C[C@H]4O)ncc3Cl)cc2n1C` [Example A08], the Ki at CDK4/Cyclin D1 is 1.1 nM; at CDK6/Cyclin D3, 4.8 nM.
With `CC(C)n1c([C@@H](C)O)nc2c(F)cc(-c3nc(N[C@@H]4CCNC[C@H]4O)ncc3Cl)cc21` [Example A50, (3R,4R)-4-[(5-chloro-4-{4-fluoro-2-[(1R)-1-hydroxyethyl]-1-(propan-2-yl)-1H-benzimidazol-6-yl}pyrimidin-2-yl)amino]piperidin-3-ol], the Ki stood at 17 nM on CDK4/Cyclin D1 and 110 nM at CDK6/Cyclin D3.
Regarding `COc1cnc(N[C@@H]2CCN(S(C)(=O)=O)C[C@H]2O)nc1-c1cc(F)c2nc(C)n(C(C)C)c2c1` [Example A82, (3R,4R)-4-({4-[4-fluoro-2-methyl-1-(propan-2-yl)-1H-benzimidazol-6-yl]-5-methoxypyrimidin-2-yl}amino)-1-(methanesulfonyl)piperidin-3-ol], the Ki turned out to be 3.8 nM on CDK4/Cyclin D1 and 24.6 nM on CDK6/Cyclin D3.
With `CC(C)n1c([C@@H](C)O)nc2c(F)cc(-c3cc(N[C@@H]4CCN(S(C)(=O)=O)C[C@H]4O)ncc3Cl)cc21` [Example D03, (3R,4R)-4-[(5-chloro-4-{4-fluoro-2-[(1R)-1-hydroxyethyl]-1-(propan-2-yl)-1H-benzimidazol-6-yl}pyridin-2-yl)amino]-1-(methanesulfonyl)piperidin-3-ol], the Ki on CDK4/Cyclin D1 came to 0.6 nM; on CDK6/Cyclin D3, 4.7 nM.
Consider `CCc1cnc(N[C@@H]2CCN(S(C)(=O)=O)C[C@H]2O)nc1-c1cc(F)c2nc(C)n(C(C)C)c2c1` [Example A70, (3R,4R)-4-({5-ethyl-4-[4-fluoro-2-methyl-1-(propan-2-yl)-1H-benzimidazol-6-yl]pyrimidin-2-yl}amino)-1-(methanesulfonyl)piperidin-3-ol], for which the Ki at CDK4/Cyclin D1 was determined as 26.2 nM; at CDK6/Cyclin D3 it was 124 nM.
With `OCc1nc2c(F)cc(-c3nc(N[C@@H]4CCOC[C@H]4O)ncc3Cl)cc2n1C1CC(F)(F)C1` [Example A66, 1,5-anhydro-3-({5-chloro-4-[1-(3,3-difluorocyclobutyl)-4-fluoro-2-(hydroxymethyl)-1H-benzimidazol-6-yl]pyrimidin-2-yl}amino)-2,3-dideoxy-D-threo-pentitol], the results for the Ki at CDK4/Cyclin D1 and at CDK6/Cyclin D3 were 12.1 nM and 54.7 nM, respectively.
The corresponding values for `Cc1nc2c(F)cc(-c3nc(N[C@H]4CCN(S(C)(=O)=O)C[C@@H]4O)ncc3F)cc2n1C(C)C` [Example F14, (3S,4S)-4-({5-fluoro-4-[4-fluoro-2-methyl-1-(propan-2-yl)-1H-benzimidazol-6-yl]pyrimidin-2-yl}amino)-1-(methanesulfonyl)piperidin-3-ol] are 3.6 nM and 30.8 nM.
As to `CNCC(=O)N1CC[C@@H](Nc2ncc(Cl)c(-c3cc(F)c4ncn(C(C)C)c4c3)n2)[C@H](O)C1` [Example F24, 1-[(3R,4R)-4-({5-chloro-4-[4-fluoro-1-(propan-2-yl)-1H-benzimidazol-6-yl]pyrimidin-2-yl}amino)-3-hydroxypiperidin-1-yl]-2-(methylamino)ethan-1-one], the results for the Ki on CDK4/Cyclin D1 and on CDK6/Cyclin D3 were 2.1 nM and 19.9 nM, respectively.
Take `CC(C)n1cnc2c(F)cc(-c3nc(N[C@@H]4CCN(C(=O)C5(C)COC5)C[C@H]4O)ncc3Cl)cc21` [Example F19, [(3R,4R)-4-({5-chloro-4-[4-fluoro-1-(propan-2-yl)-1H-benzimidazol-6-yl]pyrimidin-2-yl}amino)-3-hydroxypiperidin-1-yl](3-methyloxetan-3-yl)methanone]: the Ki turned out to be 1.5 nM on CDK4/Cyclin D1 and 11.8 nM on CDK6/Cyclin D3.
Turning to `CC(C)n1nnc2ccc(-c3nc(N[C@@H]4CCN(S(C)(=O)=O)C[C@H]4O)ncc3Cl)cc21` [Example A84, (3R,4R)-4-({5-chloro-4-[1-(propan-2-yl)-1H-benzotriazol-6-yl]pyrimidin-2-yl}amino)-1-(methanesulfonyl)piperidin-3-ol], the inhibition constant Ki at CDK4/Cyclin D1 was 6 nM; on CDK6/Cyclin D3 it was 30.3 nM.
As to `CC(C)(O)c1nc2c(F)cc(-c3nc(N[C@@H]4CCOC[C@H]4O)ncc3Cl)cc2n1CC(F)F` [Example A67, 1,5-anhydro-3-({5-chloro-4-[1-(2,2-difluoroethyl)-4-fluoro-2-(2-hydroxypropan-2-yl)-1H-benzimidazol-6-yl]pyrimidin-2-yl}amino)-2,3-dideoxy-D-threo-pentitol], the Ki at CDK4/Cyclin D1 was 1.4 nM; on CDK6/Cyclin D3 it was 15.5 nM.
For `Cc1nc2c(F)cc(-c3nc(N[C@@H]4CCN(S(C)(=O)=O)C[C@H]4O)ncc3Cl)cc2n1[C@@H](C)CN` [Example A39, (3R,4R)-4-[(4-{1-[(2S)-1-aminopropan-2-yl]-4-fluoro-2-methyl-1H-benzimidazol-6-yl}-5-chloropyrimidin-2-yl)amino]-1-(methanesulfonyl)piperidin-3-ol], the inhibition constant Ki at CDK4/Cyclin D1 was 1.3 nM; at CDK6/Cyclin D3, 12.3 nM.
